{"source": "patent US20100292214A1", "about": "“Compounds with Antiparasitic Activity, Applications thereof to the Treatment of Infectious Diseases Caused by Apicomplexans” (commissariat a l'Energie Atomique, priority 2007, published 2010)", "key": {"[1]": {"tested_on": "Toxoplasma gondii RH-β1 strain", "assay": "microbe, parasite or virus in culture", "format": "cell-based", "conditions": "read-out: IC50 assessed on Toxoplama Gondii"}, "[2]": {"tested_on": "asynchronous 3D7 chloroquine-sensitive P. falciparum infected red blood cells", "assay": "Labeled hypoxanthine incorporation assay (in vitro anti-malarial activity)", "format": "cell-based", "conditions": "3D7 chloroquine-sensitive strain, infected RBC, 48 h contact, [3H]-hypoxanthine incorporation, two independent experiments in duplicates, read-out: IC50 assessed on Plasmodium Falciparum"}, "[3]": {"conditions": "Plasmodium falciparum, 3D7, Erythrocyte"}}, "note": "Counter-ions that a name gives are not always drawn. Like-named read-outs stand apart in the source and are kept apart here.", "data": [{"smiles": "COc1ccc(S(=O)(=O)n2c(=O)n(C3CCN(C(=O)OC[C@H](C)N(Cc4ccccc4)Cc4ccccc4)CC3)c3ccccc32)cc1", "note": "[Compound 57, (S)-2-(dibenzylamino)propyl 4-(3-(4-methoxyphenylsulfonyl)-2-oxo-2,3-dihydro-1H-benzo[d]imidazol-1-yl)piperidine-1-carboxylate]", "values": [{"measurement": "IC50", "setting": "[1]; Toxoplasma gondii", "result": 1.75, "unit": "µM"}, {"measurement": "IC50", "setting": "[2]; [3]", "result": 0.41, "unit": "µM"}]}, {"smiles": "CC(=O)n1c(=O)n(C2CCN(C(=O)OC[C@H](C)N(Cc3ccccc3)Cc3ccccc3)CC2)c2ccccc21", "note": "[Compound 65, (S)-2-(dibenzylamino)propyl 4-(1-acetyl-1,2-dihydro-2-oxobenzo[d]imidazol-3-yl)piperidine-1-carboxylate]", "values": [{"measurement": "IC50", "setting": "[1]; Toxoplasma gondii", "result": 0.99, "unit": "µM"}, {"measurement": "IC50", "setting": "[2]; [3]", "result": 2.94, "unit": "µM"}]}, {"smiles": "C[C@@H](COC(=O)N1CCC(N(c2ccccc2)S(=O)(=O)c2cccc(C(F)(F)F)c2)CC1)N(Cc1ccccc1)Cc1ccccc1", "note": "[Compound 169, (S)-2-(dibenzylamino)propyl 4-(N-phenyl-3-(trifluoromethyl)phenylsulfonamido)piperidine-1-carboxylate]", "values": [{"measurement": "IC50", "setting": "[1]; Toxoplasma gondii", "result": 3.2, "unit": "µM"}, {"measurement": "IC50", "setting": "[2]; [3]", "result": 0.553, "unit": "µM"}]}, {"smiles": "C[C@@H](CNC(=O)N1CCC(n2c(=O)[nH]c3ccccc32)CC1)N(Cc1ccccc1)Cc1ccccc1", "note": "[Compound 92, N—((S)-2-(dibenzylamino)propyl)-4-(1,2-dihydro-2-oxobenzo[d]imidazol-3-yl)piperidine-1-carboxamide]", "values": [{"measurement": "IC50", "setting": "[1]; Toxoplasma gondii", "result": 15, "unit": "µM"}, {"measurement": "IC50", "setting": "[2]; [3]", "result": 3.47, "unit": "µM"}]}, {"smiles": "O=C(OC[C@H](Cc1ccccc1)N(Cc1ccccc1)Cc1ccccc1)N1CCC(n2c(=O)n(Cc3ccccc3)c3ccccc32)CC1", "note": "[Compound 37, (S)-2-(dibenzylamino)-3-phenylpropyl 4-(1-benzyl-1,2-dihydro-2-oxobenzo[d]imidazol-3-yl)piperidine-1-carboxylate, hydrochloride salt]", "values": [{"measurement": "IC50", "setting": "[1]; hydrochloride salt", "result": 1.8, "unit": "µM"}, {"measurement": "IC50", "setting": "[2]; hydrochloride salt", "result": 0.873, "unit": "µM"}]}, {"smiles": "C[C@@H](COC(=O)N1CCC(n2c(=O)[nH]c3ccccc32)CC1)N(Cc1ccccc1)Cc1cccs1", "note": "[Compound 139, (S)-2-(benzyl(thiophen-2-ylmethyl)amino)propyl 4-(2-oxo-2,3-dihydro-1H-benzo[d]imidazol-1-yl)piperidine-1-carboxylate hydrochloride]", "values": [{"measurement": "IC50", "setting": "[1]; Toxoplasma gondii", "result": 5, "unit": "µM"}, {"measurement": "IC50", "setting": "[2]; [3]", "result": 3.41, "unit": "µM"}]}, {"smiles": "C[C@@H](COC(=O)N1CCC(CCn2c(=O)[nH]c3ccccc32)CC1)N(Cc1ccccc1)Cc1ccccc1", "note": "[Compound 20, (S)-2-(dibenzylamino)propyl 4-(2-(1,2-dihydro-2-oxobenzo[d]imidazol-3-yl)ethyl)piperidine-1-carboxylate]", "values": [{"measurement": "IC50", "setting": "[1]; Toxoplasma gondii", "result": 4.2, "unit": "µM"}, {"measurement": "IC50", "setting": "[2]; [3]", "result": 6.84, "unit": "µM"}]}, {"smiles": "CC(CCOC(=O)N1CCC(n2c(=O)[nH]c3ccccc32)CC1)N(Cc1ccccc1)Cc1ccccc1", "note": "(stereo not drawn) [Compound 110, 3-(dibenzylamino)butyl 4-(1,2-dihydro-2-oxobenzo[d]imidazol-3-yl)piperidine-1-carboxylate]", "values": [{"measurement": "IC50", "setting": "[1]; Toxoplasma gondii", "result": 3.6, "unit": "µM"}, {"measurement": "IC50", "setting": "[2]; [3]", "result": 1.48, "unit": "µM"}]}, {"smiles": "C[C@@H](COC(=O)N1CCC(Oc2nc3ccccc3n2C)CC1)N(Cc1ccccc1)Cc1ccccc1", "note": "[Compound 5, (S)-2-(dibenzylamino)propyl 4-(1-methyl-1H-benzo[d]imidazol-2-yloxy)piperidine-1-carboxylate]", "values": [{"measurement": "IC50", "setting": "[1]; Toxoplasma gondii", "result": 2.5, "unit": "µM"}, {"measurement": "IC50", "setting": "[2]; [3]", "result": 6.16, "unit": "µM"}]}, {"smiles": "CC(C)C[C@@H](COC(=O)N1CCC(n2c(=O)[nH]c3ccccc32)CC1)N(Cc1ccccc1)C(=O)OC(C)(C)C", "note": "[Compound 105, (S)-2-(benzyl(tert-butoxycarbonyl)amino)-4-methylpentyl 4-(2-oxo-2,3-dihydro-1H-benzo[d]imidazol-1-yl)piperidine-1-carboxylate]", "values": [{"measurement": "IC50", "setting": "[1]; Toxoplasma gondii", "result": 2.2, "unit": "µM"}, {"measurement": "IC50", "setting": "[2]; [3]", "result": 1.42, "unit": "µM"}]}, {"smiles": "C[C@@H](COC(=O)N1CCC(n2c(=O)[nH]c3ccccc32)CC1)N(CCCc1ccccc1)Cc1ccccc1", "note": "[Compound 125, (S)-2-(benzyl(3-phenylpropyl)amino)propyl 4-(2-oxo-2,3-dihydro-1H-benzo[d]imidazol-1-yl)piperidine-1-carboxylate hydrochloride]", "values": [{"measurement": "IC50", "setting": "[1]; Toxoplasma gondii", "result": 4, "unit": "µM"}, {"measurement": "IC50", "setting": "[2]; [3]", "result": 4.2, "unit": "µM"}]}, {"smiles": "C[C@@H](COC(=O)N1CCC(n2c(=O)n3c4c(cccc42)C(=O)CCC3)CC1)N(Cc1ccccc1)Cc1ccccc1", "note": "[Compound 79, (S)(1-((2-(dibenzylamino)propoxy)carbonyl)piperidin-4-yl)-5,6-dihydro-imidazo[4,5,1,j,k][1]benzazepine-2,7(1H,4H)-dione]", "values": [{"measurement": "IC50", "setting": "[1]; Toxoplasma gondii", "result": 11.5, "unit": "µM"}, {"measurement": "IC50", "setting": "[2]; [3]", "result": 3.12, "unit": "µM"}]}, {"smiles": "O=C(OCCCN(Cc1ccccc1)Cc1cccs1)N1CCC(n2c(=O)[nH]c3ccccc32)CC1", "note": "[Compound 141, 3-(benzyl(thiophen-2-ylmethyl)amino)propyl 4-(2-oxo-2,3-dihydro-1H-benzo[d]imidazol-1-yl)piperidine-1-carboxylate hydrochloride]", "values": [{"measurement": "IC50", "setting": "[1]; Toxoplasma gondii", "result": 4, "unit": "µM"}, {"measurement": "IC50", "setting": "[2]; [3]", "result": 4.17, "unit": "µM"}]}, {"smiles": "C[C@@H](COC(=O)N1CCC(n2c(=O)[nH]c3ccccc32)C1)N(Cc1ccccc1)Cc1ccccc1", "note": "(stereo partly drawn) [Compound 17, (S)-2-(dibenzylamino)propyl 3-(1,2-dihydro-2-oxobenzo[d]imidazol-3-yl)pyrrolidine-1-carboxylate]", "values": [{"measurement": "IC50", "setting": "[1]; Toxoplasma gondii", "result": 3.3, "unit": "µM"}, {"measurement": "IC50", "setting": "[2]; [3]", "result": 7.18, "unit": "µM"}]}, {"smiles": "Cn1c(=O)n(C2CCN(C(=O)OC[C@H](Cc3ccccc3)N(Cc3ccccc3)Cc3ccccc3)CC2)c2ccccc21", "note": "[Compound 68, (S)-2-(dibenzylamino)-3-phenylpropyl 4-(1,2-dihydro-1-methyl-2-oxobenzo[d]imidazol-3-yl)piperidine-1-carboxylate]", "values": [{"measurement": "IC50", "setting": "[1]; Toxoplasma gondii", "result": 0.8, "unit": "µM"}, {"measurement": "IC50", "setting": "[2]; [3]", "result": 0.452, "unit": "µM"}]}, {"smiles": "C[C@@H](COC(=O)N1CCC(Nc2nc3ccccc3n2C(=O)OC[C@H](C)N(Cc2ccccc2)Cc2ccccc2)CC1)N(Cc1ccccc1)Cc1ccccc1", "note": "[Compound 94, (S)-2-(dibenzylamino)propyl 2-(1-(((S)-2-(dibenzylamino)propoxy)carbonyl)piperidin-4-ylamino)-1H-benzo[d]imidazole-1-carboxylate]", "values": [{"measurement": "IC50", "setting": "[1]; Toxoplasma gondii", "result": 9, "unit": "µM"}, {"measurement": "IC50", "setting": "[2]; [3]", "result": 2.62, "unit": "µM"}]}, {"smiles": "C[C@@H](COC(=O)N1CCC(n2c(=O)[nH]c3ccccc32)CC1)N(Cc1ccccc1)Cc1cccc(Cl)c1", "note": "[Compound 128, (S)-2-(benzyl(3-chlorobenzyl)amino)propyl 4-(2-oxo-2,3-dihydro-1H-benzo[d]imidazol-1-yl)piperidine-1-carboxylate hydrochloride]", "values": [{"measurement": "IC50", "setting": "[1]; Toxoplasma gondii", "result": 5, "unit": "µM"}, {"measurement": "IC50", "setting": "[2]; [3]", "result": 2.06, "unit": "µM"}]}, {"smiles": "O=C(OC[C@H](Cc1ccccc1)N(Cc1ccccc1)Cc1ccccc1)N1CCC(n2c(=O)[nH]c3ccccc32)CC1", "note": "[Compound 26, (S)-2-(dibenzylamino)-3-phenylpropyl 4-(1,2-dihydro-2-oxobenzo[d]imidazol-3-yl)piperidine-1-carboxylate]", "values": [{"measurement": "IC50", "setting": "[1]; Toxoplasma gondii", "result": 4.8, "unit": "µM"}, {"measurement": "IC50", "setting": "[2]; [3]", "result": 1.4, "unit": "µM"}]}, {"smiles": "COc1ccc(NC2CCN(C(=O)OC[C@H](C)N(Cc3ccccc3)Cc3ccccc3)CC2)c(OC)c1", "note": "[Compound 82, (S)-2-(dibenzylamino)propyl 4-(2,4-dimethoxyphenylamino)piperidine-1-carboxylate]", "values": [{"measurement": "IC50", "setting": "[1]; Toxoplasma gondii", "result": 7.3, "unit": "µM"}, {"measurement": "IC50", "setting": "[2]; [3]", "result": 2.38, "unit": "µM"}]}, {"smiles": "C[C@@H](CNC(=N)N1CCC(n2c(=O)[nH]c3ccccc32)CC1)N(Cc1ccccc1)Cc1ccccc1", "note": "[Compound 95, N—((S)-2-(dibenzylamino)propyl)-4-(1,2-dihydro-2-oxobenzo[d]imidazol-3-yl)piperidine-1-carboxamidine]", "values": [{"measurement": "IC50", "setting": "[1]; Toxoplasma gondii", "result": 11, "unit": "µM"}, {"measurement": "IC50", "setting": "[2]; [3]", "result": 0.511, "unit": "µM"}]}, {"smiles": "C[C@@H](COC(=S)N1CCC(n2c(=O)[nH]c3ccccc32)CC1)N(Cc1ccccc1)Cc1ccccc1", "note": "[Compound 48, O—(S)-2-(dibenzylamino)propyl 4-(1,2-dihydro-2-oxobenzo[d]imidazol-3-yl)piperidine-1-carbothioate]", "values": [{"measurement": "IC50", "setting": "[1]; Toxoplasma gondii", "result": 1.18, "unit": "µM"}, {"measurement": "IC50", "setting": "[2]; [3]", "result": 2.95, "unit": "µM"}]}, {"smiles": "CCOC(=O)C1CN(C(=O)OC[C@H](C)N(Cc2ccccc2)Cc2ccccc2)CCC1n1c(=O)[nH]c2ccccc21", "note": "(stereo partly drawn) [Compound 18, 1-(S)-2-(dibenzylamino)propyl 3-ethyl 4-(1,2-dihydro-2-oxobenzo[d]imidazol-3-yl)piperidine-1,3-dicarboxylate]", "values": [{"measurement": "IC50", "setting": "[1]; Toxoplasma gondii", "result": 2.81, "unit": "µM"}, {"measurement": "IC50", "setting": "[2]; [3]", "result": 1.52, "unit": "µM"}]}, {"smiles": "O=C(OCCN(Cc1ccccc1)Cc1ccccc1)N1CCC(n2c(=O)[nH]c3ccccc32)CC1", "note": "[Compound 30, 2-(dibenzylamino)ethyl 4-(1,2-dihydro-2-oxobenzo[d]imidazol-3-yl)piperidine-1-carboxylate]", "values": [{"measurement": "IC50", "setting": "[1]; Toxoplasma gondii", "result": 7.5, "unit": "µM"}, {"measurement": "IC50", "setting": "[2]; [3]", "result": 6.9, "unit": "µM"}]}, {"smiles": "C[C@@H](COC(=O)N1CCC(N(c2ccccc2)S(=O)(=O)c2ccccc2)CC1)N(Cc1ccccc1)Cc1ccccc1", "note": "[Compound 90, (S)-2-(dibenzylamino)propyl 4-(N-phenylphenylsulfonamido)piperidine-1-carboxylate]", "values": [{"measurement": "IC50", "setting": "[1]; Toxoplasma gondii", "result": 1.75, "unit": "µM"}, {"measurement": "IC50", "setting": "[2]; [3]", "result": 0.525, "unit": "µM"}]}, {"smiles": "O=C(OCCN(Cc1ccccc1)Cc1ccc(Cl)cc1)N1CCC(n2c(=O)[nH]c3ccccc32)CC1", "note": "[Compound 150, 2-(benzyl(4-chlorobenzyl)amino)ethyl 4-(2-oxo-2,3-dihydro-1H-benzo[d]imidazol-1-yl)piperidine-1-carboxylate]", "values": [{"measurement": "IC50", "setting": "[1]; Toxoplasma gondii", "result": 1.5, "unit": "µM"}, {"measurement": "IC50", "setting": "[2]; [3]", "result": 2.59, "unit": "µM"}]}, {"smiles": "O=C(OCCCN(Cc1ccccc1)Cc1ccc([N+](=O)[O-])cc1)N1CCC(n2c(=O)[nH]c3ccccc32)CC1", "note": "[Compound 114, 3-(benzyl(4-nitrobenzyl)amino)propyl 4-(2-oxo-2,3-dihydro-1H-benzo[d]imidazol-1-yl)piperidine-1-carboxylate hydrochloride]", "values": [{"measurement": "IC50", "setting": "[1]; Toxoplasma gondii", "result": 3.3, "unit": "µM"}, {"measurement": "IC50", "setting": "[2]; [3]", "result": 3.17, "unit": "µM"}]}, {"smiles": "C[C@@H](COC(=O)N1CCC(N2CCCc3ccccc32)CC1)N(Cc1ccccc1)Cc1ccccc1", "note": "[Compound 8, (S)-2-(dibenzylamino)propyl 4-(3,4-dihydroquinolin-1(2H)-yl)piperidine-1-carboxylate]", "values": [{"measurement": "IC50", "setting": "[1]; Toxoplasma gondii", "result": 25, "unit": "µM"}, {"measurement": "IC50", "setting": "[2]; [3]", "result": 2.81, "unit": "µM"}]}]}
